Source: patent US11802111B2, “Cyclobutyl amide monoacylglycerol lipase modulators” (Janssen Pharmaceutica NV, priority 2020, dated 2023)

Target: human MGL from HeLa cells (Homo sapiens (Human), UniProt Q99685)
Assay: MGL in vitro activity assay ([glycerol-1,3-3H]-oleoyl glycerol hydrolysis, activated carbon filtration)
Type: biochemical
Details: 300 nM [Glycerol-1,3-3H]-oleoyl glycerol, one hour
In short: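 Endogenous human MGL in HeLa cells/homogenates incubated 1 h with test compounds and 300 nM [glycerol-1,3-3H]-oleoyl glycerol. Released 3H-glycerol passing an activated carbon filter counted as activity; screening at 10 μM compound, top IC50 concentration set empirically.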

Sequence of human MGL from HeLa cells (Q99685 whole entry): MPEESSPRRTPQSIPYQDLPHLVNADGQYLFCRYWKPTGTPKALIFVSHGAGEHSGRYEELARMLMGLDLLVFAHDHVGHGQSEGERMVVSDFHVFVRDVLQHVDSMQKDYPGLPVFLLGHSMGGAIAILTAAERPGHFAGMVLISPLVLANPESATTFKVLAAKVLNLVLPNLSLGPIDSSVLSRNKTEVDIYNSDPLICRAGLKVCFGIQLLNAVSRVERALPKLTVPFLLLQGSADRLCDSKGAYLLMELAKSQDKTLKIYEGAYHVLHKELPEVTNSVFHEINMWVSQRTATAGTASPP

Row | Structure (SMILES) | IC50 [nM]
1 | COc1ccc(CC2CCC3(C2)CN(C(=O)[C@H]2C[C@@](C)(O)C2)C3)cc1 (mixture of isomers) [Example 205, (rac)-((1s,3s)-3-Hydroxy-3-methylcyclobutyl)(6-(4-methoxybenzyl)-2-azaspiro[3.4]octan-2-yl)methanone] | 76
2 | C[C@]1(O)C[C@@H](C(=O)N2CC3(CCC(Cc4ccccc4)C3)C2)C1 (mixture of isomers) [Example 234, (rac)-(6-Benzyl-2-azaspiro[3.4]octan-2-yl)((1s,3s)-3-hydroxy-3-methylcyclobutyl)methanone] | 98
3 | CC(C)(C)c1ccc(OC2CCC3(C2)CN(C(=O)[C@H]2C[C@@](C)(O)C2)C3)cc1 (mixture of isomers) [Example 240, (rac)-(6-(4-(tert-Butyl)phenoxy)-2-azaspiro[3.4]octan-2-yl)((1s,3s)-3-hydroxy-3-methylcyclobutyl)methanone] | 122
4 | CC(C)(C)c1cccc(OC2CCC3(C2)CN(C(=O)[C@H]2C[C@@](C)(O)C2)C3)c1 (mixture of isomers) [Example 243, (rac)-(6-(3-(tert-Butyl)phenoxy)-2-azaspiro[3.4]octan-2-yl)((1s,3s)-3-hydroxy-3-methylcyclobutyl)methanone] | 26
5 | Cc1c(OC2CCC3(C2)CN(C(=O)[C@H]2C[C@@](C)(O)C2)C3)cccc1C(F)(F)F (mixture of isomers) [Example 253, (rac)-((1s,3s)-3-Hydroxy-3-methylcyclobutyl)(6-(2-methyl-3-(trifluoromethyl)phenoxy)-2-azaspiro[3.4]octan-2-yl)methanone] | 26
6 | Cc1cc(OC2CCC3(C2)CN(C(=O)[C@H]2C[C@@](C)(O)C2)C3)ccc1C(F)(F)F (mixture of isomers) [Example 254, (rac)-((1s,3s)-3-Hydroxy-3-methylcyclobutyl)(6-(3-methyl-4-(trifluoromethyl)phenoxy)-2-azaspiro[3.4]octan-2-yl)methanone] | 21
7 | Cc1cc(C(F)(F)F)ccc1OC1CCC2(C1)CN(C(=O)[C@H]1C[C@@](C)(O)C1)C2 (mixture of isomers) [Example 255, (rac)-((1s,3s)-3-Hydroxy-3-methylcyclobutyl)(6-(2-methyl-4-(trifluoromethyl)phenoxy)-2-azaspiro[3.4]octan-2-yl)methanone] | 15
8 | Cc1ccc(OC2CCC3(C2)CN(C(=O)[C@H]2C[C@@](C)(O)C2)C3)cc1C(F)(F)F (mixture of isomers) [Example 256, (rac)-((1s,3s)-3-Hydroxy-3-methylcyclobutyl)(6-(4-methyl-3-(trifluoromethyl)phenoxy)-2-azaspiro[3.4]octan-2-yl)methanone] | 74
9 | CC(c1cccc2ccnn12)C1CC2(C1)CN(C(=O)[C@H]1C[C@@](C)(O)C1)C2 (mixture of isomers) [Example 316, (rac)-((1s,3s)-3-Hydroxy-3-methylcyclobutyl)(6-(1-(pyrazolo[1,5-a]pyridin-7-yl)ethyl)-2-azaspiro[3.3]heptan-2-yl)methanone] | 49
10 | CC(C)c1cccc(C2CCC3(C2)CN(C(=O)[C@H]2C[C@](O)(C(F)F)C2)C3)c1 (mixture of isomers) [Example 319, (rac)-((1s,3s)-3-(Difluoromethyl)-3-hydroxycyclobutyl)(6-(3-isopropylphenyl)-2-azaspiro[3.4]octan-2-yl)methanone] | 38
11 | CC(F)(F)c1ccc(C2CCC3(C2)CN(C(=O)[C@H]2C[C@@](C)(O)C2)C3)cc1 (mixture of isomers) [Example 320, (rac)-(6-(4-(1,1-Difluoroethyl)phenyl)-2-azaspiro[3.4]octan-2-yl)((1s,3s)-3-hydroxy-3-methylcyclobutyl)methanone] | 18
12 | C[C@]1(O)C[C@@H](C(=O)N2CC3(CCC(c4ccc5c(c4)OCC5)C3)C2)C1 (mixture of isomers) [Example 323, (rac)-(6-(2,3-Dihydrobenzofuran-6-yl)-2-azaspiro[3.4]octan-2-yl)((1s,3s)-3-hydroxy-3-methylcyclobutyl)methanone] | 166
13 | C[C@]1(O)C[C@@H](C(=O)N2CC3(CCC(c4cccn5nccc45)C3)C2)C1 (mixture of isomers) [Example 324, (rac)-((1s,3s)-3-Hydroxy-3-methylcyclobutyl)(6-(pyrazolo[1,5-c]pyridin-4-yl)-2-azaspiro[3.4]octan-2-yl)methanone] | 835
14 | C[C@]1(O)C[C@@H](C(=O)N2CC3(CCC(c4cc5ccccn5n4)C3)C2)C1 (mixture of isomers) [Example 325, (rac)-((1s,3s)-3-Hydroxy-3-methylcyclobutyl)(6-(pyrazolo[1,5-c]pyridin-2-yl)-2-azaspiro[3.4]octan-2-yl)methanone] | 348
15 | Cn1ncc2c(C3CCC4(C3)CN(C(=O)[C@H]3C[C@@](C)(O)C3)C4)cccc21 (mixture of isomers) [Example 326, (rac)-((1s,3s)-3-Hydroxy-3-methylcyclobutyl)(6-(1-methyl-1H-indazol-4-yl)-2-azaspiro[3.4]octan-2-yl)methanone] | 185
16 | C[C@]1(O)C[C@@H](C(=O)N2CC3(CCC(c4cccn5ccnc45)C3)C2)C1 (mixture of isomers) [Example 327, (rac)-((1s,3s)-3-Hydroxy-3-methylcyclobutyl)(6-(imidazo[1,2-c]pyridin-8-yl)-2-azaspiro[3.4]octan-2-yl)methanone] | 3090

Row | Structure (SMILES) | IC50 [nM]
17 | C[C@]1(O)C[C@@H](C(=O)N2CC3(CCC(c4ccn5ccnc5c4)C3)C2)C1 (mixture of isomers) [Example 328, (rac)-((1s,3s)-3-Hydroxy-3-methylcyclobutyl)(6-(imidazo[1,2-a]pyridin-7-yl)-2-azaspiro[3.4]octan-2-yl)methanone] | 3710
18 | C[C@]1(O)C[C@@H](C(=O)N2CC3(CCC(c4ncn5ccccc45)C3)C2)C1 (mixture of isomers) [Example 329, (rac)-((1s,3s)-3-Hydroxy-3-methylcyclobutyl)(6-(imidazo[1,5-a]pyridin-1-yl)-2-azaspiro[3.4]octan-2-yl)methanone] | 683
19 | C[C@]1(O)C[C@@H](C(=O)N2CC3(CCC(c4ncn5c4CCCC5)C3)C2)C1 (mixture of isomers) [Example 330, (rac)-((1s,3s)-3-Hydroxy-3-methylcyclobutyl)(6-(5,6,7,8-tetrahydroimidazo[1,5-a]pyridin-1-yl)-2-azaspiro[3.4]octan-2-yl)methanone] | 2380
20 | C[C@]1(O)C[C@@H](C(=O)N2CC3(CCC(c4cc5n(n4)CCCC5)C3)C2)C1 (mixture of isomers) [Example 331, (rac)-((1s,3s)-3-Hydroxy-3-methylcyclobutyl)(6-(4,5,6,7-tetrahydropyrazolo[1,5-a]pyridin-2-yl)-2-azaspiro[3.4]octan-2-yl)methanone] | 1020
21 | Cc1ccc(OC2CCC3(C2)CN(C(=O)[C@H]2C[C@@](C)(O)C2)C3)cc1C1CC1 (mixture of isomers) [Example 332, (rac)-(6-(3-Cyclopropyl-4-methylphenoxy)-2-azaspiro[3.4]octan-2-yl)((1s,3s)-3-hydroxy-3-methylcyclobutyl)methanone] | 136
22 | Cc1c(OC2CCC3(C2)CN(C(=O)[C@H]2C[C@@](C)(O)C2)C3)cccc1C1CC1 (mixture of isomers) [Example 333, (rac)-(6-(3-Cyclopropyl-2-methylphenoxy)-2-azaspiro[3.4]octan-2-yl)((1s,3s)-3-hydroxy-3-methylcyclobutyl)methanone] | 37
23 | C[C@]1(O)C[C@@H](C(=O)N2CC3(CCC(Oc4cccc(C5CC5)c4F)C3)C2)C1 (mixture of isomers) [Example 334, (rac)-(6-(3-Cyclopropyl-2-fluorophenoxy)-2-azaspiro[3.4]octan-2-yl)((1s,3s)-3-hydroxy-3-methylcyclobutyl)methanone] | 125
24 | C[C@]1(O)C[C@@H](C(=O)N2CC3(CCC(Oc4ccc(F)c(C5CC5)c4)C3)C2)C1 (mixture of isomers) [Example 335, (rac)-(6-(3-Cyclopropyl-4-fluorophenoxy)-2-azaspiro[3.4]octan-2-yl)((1s,3s)-3-hydroxy-3-methylcyclobutyl)methanone] | 116
25 | Cc1ccc(OC2CCC3(C2)CN(C(=O)[C@H]2C[C@@](C)(O)C2)C3)nc1C(F)(F)F (mixture of isomers) [Example 336, (rac)-((1s,3s)-3-Hydroxy-3-methylcyclobutyl)(6-((5-methyl-6-(trifluoromethyl)pyridin-2-yl)oxy)-2-azaspiro[3.4]octan-2-yl)methanone] | 91
26 | CC(C)c1cccc([C@@H]2CCC3(C2)CN(C(=O)[C@H]2C[C@@](C)(O)C2)C3C)c1 (relative stereo) [Example 318, ((1s,3*S)-3-Hydroxy-3-methylcyclobutyl)((6*R)-6-(3-isopropylphenyl)-1-methyl-2-azaspiro[3.4]octan-2-yl)methanone] | 48
27 | C[C@@H](c1ccccc1)[C@H]1CCC2(C1)CN(C(=O)[C@H]1C[C@@](C)(O)C1)C2 (relative stereo) [Example 338, ((1s,3*R)-3-Hydroxy-3-methylcyclobutyl)((*S)-6-((*R)-1-phenylethyl)-2-azaspiro[3.4]octan-2-yl)methanone] | 60
28 | C[C@H](c1ccccc1)[C@H]1CCC2(C1)CN(C(=O)[C@H]1C[C@@](C)(O)C1)C2 (relative stereo) [Example 339, ((1s,3*R)-3-Hydroxy-3-methylcyclobutyl)((*S)-6-((*S)-1-phenylethyl)-2-azaspiro[3.4]octan-2-yl)methanone] | 48
29 | C[C@@H](c1ccccc1)[C@@H]1CCC2(C1)CN(C(=O)[C@H]1C[C@@](C)(O)C1)C2 (single isomer, unassigned) [Example 337, ((1s,3*S)-3-Hydroxy-3-methylcyclobutyl)((*R)-6-((*R)-1-phenylethyl)-2-azaspiro[3.4]octan-2-yl)methanone] | 149
30 | COc1cc([C@@H]2CCC3(C2)CN(C(=O)[C@H]2C[C@@](C)(O)C2)C3)ccc1C (stereo in doubt) [Example 18, ((1s,3*S)-3-Hydroxy-3-methylcyclobutyl)((*R)-6-(3-methoxy-4-methylphenyl)-2-azaspiro[3.4]octan-2-yl)methanone] | 64
31 | COc1cc([C@H]2CCC3(C2)CN(C(=O)[C@H]2C[C@@](C)(O)C2)C3)ccc1C (stereo in doubt) [Example 19, ((1s,3*R)-3-Hydroxy-3-methylcyclobutyl)((*S)-6-(3-methoxy-4-methylphenyl)-2-azaspiro[3.4]octan-2-yl)methanone] | 67
